From ChEMBL document CHEMBL6121060, “Discovery and Development of CFTR Modulators for the Treatment of Cystic Fibrosis” (J Med Chem, 2025)
Values after ≈ are worked out from the molar mass of the structure shown. Each block holds one molecule with its values, some of them ahead of it.

Assays:
[1] = biological target: T1, Cystic fibrosis transmembrane conductance regulator (Homo sapiens, UniProt P13569, F508DEL); assay: Activation of CFTR F508del mutant (unknown origin)
[2] = Half life in rat at 3 mg/kg, iv measured for 24 hrs by LC-MS/MS analysis; type: ADME, organism-based; settings: in vivo
[3] = Intrinsic clearance in mouse liver microsomes by HPLC-MS/MS analysis; type: ADME, Microsome; settings: read-out: CLH (converted)
[4] = Clearance in rat liver microsomes by LC-MS/MS analysis; type: ADME, Microsome
[5] = biological target: T2, Nuclear receptor subfamily 1 group I member 2 (Homo sapiens, UniProt O75469); assay: Activation of PXR (unknown origin) at 10 uM relative to rifampicin
T2 sequence (O75469 whole entry): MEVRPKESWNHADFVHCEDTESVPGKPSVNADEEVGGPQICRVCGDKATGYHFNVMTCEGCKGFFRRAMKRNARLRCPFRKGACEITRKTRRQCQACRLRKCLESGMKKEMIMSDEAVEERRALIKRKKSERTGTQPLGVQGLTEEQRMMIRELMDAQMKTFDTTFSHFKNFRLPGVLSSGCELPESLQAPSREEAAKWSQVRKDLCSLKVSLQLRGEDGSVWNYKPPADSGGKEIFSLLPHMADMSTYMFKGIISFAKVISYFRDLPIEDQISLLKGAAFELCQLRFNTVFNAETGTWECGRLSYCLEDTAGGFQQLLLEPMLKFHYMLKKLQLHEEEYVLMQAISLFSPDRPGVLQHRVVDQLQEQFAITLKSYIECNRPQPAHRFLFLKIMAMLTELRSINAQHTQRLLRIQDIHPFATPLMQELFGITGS

[6] = Intrinsic clearance in rat liver microsomes by HPLC-MS/MS analysis; type: ADME, Microsome; settings: read-out: CLH (converted)
[7] = Volume of distribution at steady state in rat at 3 mg/kg, iv measured for 24 hrs by LC-MS/MS analysis; type: ADME, organism-based; settings: in vivo, read-out: Vdss
[8] = biological target: T1, Cystic fibrosis transmembrane conductance regulator; assay: Potentiation of VX-809-induced corrector activity at CFTR F508del mutant in patient derived human HBE cells; type: cell-based
[9] = biological target: T1, Cystic fibrosis transmembrane conductance regulator; assay: Potentiation of CFTR F508del mutant (unknown origin)
[10] = Metabolic stability in rat liver microsomes assessed as intrinsic clearance; type: ADME, Microsome
[11] = Solubility of compound at pH 6.8 incubated for 12 hrs by HPLC analysis; type: physicochemical; settings: buffer
[12] = Volume of distribution at steady state in rat at 1 mg/kg, iv; type: ADME, organism-based; settings: in vivo, read-out: Vdss
[13] = Plasma protein binding in human; type: ADME, cell-free
[14] = Clearance in rat at 1 mg/kg, iv; type: ADME, organism-based; settings: in vivo
[15] = Mean residence time in rat at 1 mg/kg, iv; type: ADME, organism-based; settings: in vivo
[16] = AUC in rat at 3 mg/kg, po; settings: in vivo
[17] = Apparent permeability across apical to basolateral side in MDCK cells; type: ADME, cell-based, Canis lupus familiaris; settings: dog
[18] = biological target: T1, Cystic fibrosis transmembrane conductance regulator; assay: Potentiation of CFTR F508del mutant (unknown origin) expressed in NIH3T3 cells; type: cell-based
[19] = biological target: T3, PXR (nuclear receptor subfamily 1 group I member 2) (Homo sapiens, UniProt O75469); assay: Activation of PXR (unknown origin) at 10 uM relative to control; settings: read-out: Activity
T3 sequence (O75469 whole entry): T2 sequence (O75469 whole entry)

T1 sequence (P13569 as listed by the source): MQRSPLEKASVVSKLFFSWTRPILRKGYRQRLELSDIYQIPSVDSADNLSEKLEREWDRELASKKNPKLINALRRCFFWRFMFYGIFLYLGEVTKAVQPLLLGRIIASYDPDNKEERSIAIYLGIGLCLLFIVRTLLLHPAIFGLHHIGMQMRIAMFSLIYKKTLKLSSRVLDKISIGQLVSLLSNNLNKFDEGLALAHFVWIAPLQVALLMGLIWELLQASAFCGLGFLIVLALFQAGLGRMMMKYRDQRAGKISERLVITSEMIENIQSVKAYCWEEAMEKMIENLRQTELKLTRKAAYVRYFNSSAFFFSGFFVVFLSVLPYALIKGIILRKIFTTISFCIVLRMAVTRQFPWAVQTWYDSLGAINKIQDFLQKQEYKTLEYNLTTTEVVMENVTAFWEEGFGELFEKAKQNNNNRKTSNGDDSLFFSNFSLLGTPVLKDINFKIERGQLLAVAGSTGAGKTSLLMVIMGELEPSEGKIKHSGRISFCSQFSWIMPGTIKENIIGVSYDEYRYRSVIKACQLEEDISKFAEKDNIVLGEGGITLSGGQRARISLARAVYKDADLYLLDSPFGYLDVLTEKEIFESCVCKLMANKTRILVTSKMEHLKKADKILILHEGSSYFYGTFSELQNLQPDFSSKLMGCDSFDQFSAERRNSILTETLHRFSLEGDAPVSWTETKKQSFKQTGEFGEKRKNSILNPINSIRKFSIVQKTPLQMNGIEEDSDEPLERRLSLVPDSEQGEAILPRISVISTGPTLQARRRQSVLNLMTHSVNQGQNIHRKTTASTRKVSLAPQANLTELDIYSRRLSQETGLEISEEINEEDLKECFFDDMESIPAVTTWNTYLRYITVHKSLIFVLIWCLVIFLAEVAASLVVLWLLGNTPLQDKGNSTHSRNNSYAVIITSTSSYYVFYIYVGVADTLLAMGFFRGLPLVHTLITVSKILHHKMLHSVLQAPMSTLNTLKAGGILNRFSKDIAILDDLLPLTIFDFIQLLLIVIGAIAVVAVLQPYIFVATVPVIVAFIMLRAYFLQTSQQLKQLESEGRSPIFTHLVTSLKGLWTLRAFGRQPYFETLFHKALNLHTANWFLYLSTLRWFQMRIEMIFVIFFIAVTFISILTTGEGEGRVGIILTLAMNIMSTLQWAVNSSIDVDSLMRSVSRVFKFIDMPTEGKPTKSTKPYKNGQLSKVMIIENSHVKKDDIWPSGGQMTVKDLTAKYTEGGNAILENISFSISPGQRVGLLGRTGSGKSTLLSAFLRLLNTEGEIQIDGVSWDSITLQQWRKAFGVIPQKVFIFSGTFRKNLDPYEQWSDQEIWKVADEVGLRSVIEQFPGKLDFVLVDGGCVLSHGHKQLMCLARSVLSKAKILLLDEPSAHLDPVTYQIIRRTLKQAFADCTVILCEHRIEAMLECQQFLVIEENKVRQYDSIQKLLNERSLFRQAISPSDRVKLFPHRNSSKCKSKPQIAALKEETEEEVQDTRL

- AUC [16]: 14700 ng·h/mL
- Activity [5]: 19%
- EC50 [1]: 0.04 µM
SMILES: C[C@@H]1CN(c2nc(-n3ccc(OCC4(C(F)(F)F)CC4)n3)ccc2C(=O)NS(=O)(=O)c2ccccc2)C(C)(C)C1

- AUC [16]: 1200 ng·h/mL
- Activity [5]: 2%
- EC50 [1]: 0.06 µM
SMILES: C[C@@H]1CN(c2nc(-n3ccc(OCC(C)(C)C)n3)ccc2C(=O)NS(=O)(=O)c2cccnc2N)C(C)(C)C1

- EC50 [1]: 0.24 µM
SMILES: C[C@@H]1CN(c2nc(-n3ccc(OCC(O)C4(C(F)(F)F)CC4)n3)ccc2C(=O)NS(=O)(=O)c2ccccc2)C(C)(C)C1 (some centres undefined)

- EC50 [1]: 0.005 µM
SMILES: CCOc1cccc([C@H]2C[C@@]2(C(=O)NS(=O)(=O)c2cccc3nc(C)ccc23)c2cc(C)ccc2OC)n1

- Papp A→B [17]: 8.8 ×10⁻⁶ cm/s
- EC50 [18]: 0.09 µM
- activity at 10 µM [19]: 1%
SMILES: Cc1nn(C)c(C)c1S(=O)(=O)NC(=O)c1ccc(-n2ccc(OCC(C)(C)C(F)(F)F)n2)nc1N1C[C@@H](C)CC1(C)C

- EC50 [1]: 0.09 µM
SMILES: CCOc1cccc([C@@H]2C[C@]2(C(=O)NS(=O)(=O)c2cccc3nc(C)ccc23)c2cc(C)ccc2OC)n1

- EC50 [1]: 0.03 µM
SMILES: CCOc1ccc(CC)cc1[C@@]1(C(=O)NS(=O)(=O)c2cccc3nc(C)ccc23)CCCO1

- EC50 [1]: 0.03 µM
SMILES: COc1ccc(C)cc1[C@]1(C(=O)NS(=O)(=O)c2cccc3nc(C)ccc23)C[C@@H](c2ccccc2)CO1

- EC50 [1]: 0.004 µM
SMILES: Cc1ccc(C2CCCCC2)c(OC2(C(=O)NS(=O)(=O)c3cccc(N4CCC(N)(C(F)(F)F)CC4)n3)CC2)c1

- EC50 [1]: 0.08 µM
SMILES: Cc1ccc(C2CCCCC2)c(OC2(C(=O)NS(=O)(=O)c3cccc(N4CCOC[C@@H]4C)n3)CC2)c1

- Papp A→B [17]: 7.1 ×10⁻⁶ cm/s
- EC50 [18]: 0.22 µM
- activity at 10 µM [19]: 4%
SMILES: Cc1nn(C)cc1S(=O)(=O)NC(=O)c1ccc(-n2ccc(OCC3(C(F)(F)F)CC3)n2)nc1N1C[C@@H](C)CC1(C)C

- EC50 [1]: < 3 µM
SMILES: COc1ccc(C2CCC2)cc1C1(C(=O)NS(=O)(=O)c2cccc3ccccc23)CC1

The next lines start with the molecule.

SMILES: CC1(C)Cc2c(sc(NC(=O)c3ccccc3O)c2C(N)=O)C(C)(C)O1
- EC50 [1]: 0.015 µM

SMILES: CC1(C)Cc2c(sc(NC(=O)[C@H](O)C(C)(C)C)c2C(N)=O)C(C)(C)O1
- EC50 [1]: 0.003 µM

SMILES: CC1(C)Cc2c(sc(NC(=O)C3(CO)CC3)c2C(N)=O)C(C)(C)O1
- EC50 [1]: 0.0027 µM

SMILES: CC1(C)Cc2c(sc(NC(=O)[C@@H](O)C(C)(C)C)c2C(N)=O)C(C)(C)O1
- EC50 [1]: 0.127 µM

SMILES: Nc1cc(S(=O)(=O)c2ccccc2OC(F)(F)F)cnc1C(=O)NC[C@@H](O)C(F)(F)F
- half-life [2]: 6.7 h
- CLint scaled [3]: 120 mL/min/kg
- CLH [4]: 9.83 mL/min/kg
- Activity [5]: 12%
- CLint scaled [6]: 45 mL/min/kg
- Vd [7]: 5.1 L/kg
- EC50 [1]: < 0.00031 µM

SMILES: C[C@H](O)CNC(=O)c1ncc(S(=O)(=O)c2ccc(OC(F)(F)F)cc2)cc1N
- EC50 [8]: 0.0807 µM
- half-life [2]: 8.9 h
- CLint scaled [3]: 41.7 mL/min/kg
- CLH [4]: 1.3 mL/min/kg
- Activity [5]: 10%
- CLint scaled [6]: 20 mL/min/kg
- Vd [7]: 1.1 L/kg

SMILES: COC(=O)c1nc(-c2ccco2)c(C(F)(F)F)cc1N
- EC50 [9]: 0.07 µM
- CLint [10]: 351 µL/min/mg
- solubility at 12 h [11]: 2 µg/mL (≈ 6.99 µM)

SMILES: CNC(=O)c1nc(Br)c(C(F)(F)F)cc1N
- CLint [10]: 100 µL/min/mg

SMILES: C[C@](O)(CNC(=O)c1nc(C(F)(F)F)c(C(F)(F)F)cc1N)C(F)(F)F
- Vd [12]: 6.4 L/kg
- PPB [13]: 92.3%
- EC50 [9]: 0.01 µM
- clearance [14]: 15 mL/min/kg
- CLint [10]: 7.38 µL/min/mg
- solubility at 12 h [11]: 230 µg/mL (≈ 576 µM)
- MRT [15]: 7.2 h

SMILES: Nc1cc(C(F)(F)F)c(Br)nc1C(=O)NCCC(F)(F)F
- CLint [10]: 55.8 µL/min/mg
- solubility at 12 h [11]: 170 µg/mL (≈ 447 µM)

SMILES: C[C@@H]1CN(c2nc(-n3ccc(OCC4(C(F)(F)F)CCC4)n3)ccc2C(=O)NS(=O)(=O)c2ccccc2)C(C)(C)C1
- AUC [16]: 2200 ng·h/mL
- EC50 [1]: 0.04 µM

SMILES: C[C@@H]1CN(c2nc(-n3ccc(OCCC4(C(F)(F)F)CC4)n3)ccc2C(=O)NS(=O)(=O)c2cccc(F)c2)C(C)(C)C1
- AUC [16]: 2700 ng·h/mL
- EC50 [1]: 0.05 µM

SMILES: CC(O)(c1nnc(-c2ncc(S(=O)(=O)c3ccc(OC(F)(F)F)cc3)cc2N)o1)C(F)(F)F (centres undefined)
- EC50 [1]: 0.0018 µM

SMILES: CCc1ccccc1-c1nc(NS(=O)(=O)c2cccc(N(CCCC(=O)O)C(C)C)n2)ccc1C(F)(F)F
- EC50 [1]: 0.002 µM

SMILES: COc1ccc(Br)c2c1CCCC2C(=O)NS(=O)(=O)c1cccc2ncccc12 (centres undefined)
- EC50 [1]: < 3 µM

SMILES: COc1ccc(Br)c2c1C(C(=O)NS(=O)(=O)c1cccc3ccccc13)CC2 (centres undefined)
- EC50 [1]: < 3 µM
